From ChEMBL document CHEMBL1129920, “Cyclic homopentapeptides 2. Synthetic modifications of viomycin” (1997)
In brackets after ≈: the same amount, converted by molar mass.

What was measured:
Assay type in all cases: functional
Staphylococcus aureus = experiment: In vitro inhibition of MRSA growth.
Escherichia coli = experiment: In vitro inhibition of Escherichia coli growth.
Pasteurella multocida = experiment: In vitro inhibition of Pasteurella multocida growth.

## CN[C@H](CC(C)C)C(=O)N[C@H]1C(=O)N[C@@H](CC(N)=O)C(=O)N[C@H]2C(=O)N[C@H]3C(=O)N[C@H](C(=O)N[C@H](C(=O)O)c4cc(O)cc(O)c4-c4cc3ccc4O)[C@H](O)c3ccc(c(Cl)c3)Oc3cc2cc(c3O[C@@H]2O[C@H](CO)[C@@H](O)[C@H](O)[C@H]2O[C@H]2C[C@](C)(N)[C@H](O)[C@H](C)O2)Oc2ccc(cc2Cl)[C@H]1O [VANCOMYCIN]
Staphylococcus aureus
  MIC: 0.78 mg/L (≈ 0.538 µM)

## NCCC[C@H](N)CC(=O)NC1CNC(=O)[C@@H](C2CC(NC(=O)OCc3ccc(Cl)c(Cl)c3)N=C(N)N2)NC(=O)/C(=C/NC(N)=O)NC(=O)[C@@H](CO)NC(=O)[C@@H](CO)NC1=O (some centres undefined)
Escherichia coli
  MIC: 25 mg/L (≈ 28.2 µM)
Pasteurella multocida
  MIC: 6.25 mg/L (≈ 7.04 µM)
Staphylococcus aureus
  MIC: 3.12 mg/L (≈ 3.51 µM)

## NCCC[C@H](N)CC(=O)NC1CNC(=O)[C@@H](C2CC(NC(=O)NCc3ccc(C4CCCCC4)cc3)N=C(N)N2)NC(=O)/C(=C/NC(N)=O)NC(=O)[C@@H](CO)NC(=O)[C@@H](CO)NC1=O (some centres undefined)
Staphylococcus aureus
  MIC: 25 mg/L (≈ 27.8 µM)

## NCCC[C@H](N)CC(=O)NC1CNC(=O)[C@@H](C2CC(NC(=O)OCc3cccc(I)c3)N=C(N)N2)NC(=O)/C(=C/NC(N)=O)NC(=O)[C@@H](CO)NC(=O)[C@@H](CO)NC1=O (some centres undefined)
Escherichia coli
  MIC: 6.25 mg/L (≈ 6.62 µM)
Pasteurella multocida
  MIC: 6.25 mg/L (≈ 6.62 µM)
Staphylococcus aureus
  MIC: 12.5 mg/L (≈ 13.2 µM)

## COc1ccc(C2CC([C@H]3NC(=O)/C(=C/NC(N)=O)NC(=O)[C@@H](CO)NC(=O)[C@@H](CO)NC(=O)C(NC(=O)C[C@@H](N)CCCN)CNC3=O)N=C(N)N2)cc1OC (some centres undefined)
Escherichia coli
  MIC: > 200 mg/L
Pasteurella multocida
  MIC: > 200 mg/L

## CSC[C@@H](NC1CC([C@H]2NC(=O)/C(=C/NC(=O)Nc3ccc(Cl)c(Cl)c3)NC(=O)[C@@H](CO)NC(=O)[C@@H](CO)NC(=O)C(NC(=O)C[C@@H](N)CCCN)CNC2=O)N=C(N)N1)C(=O)O (some centres undefined)
Escherichia coli
  MIC: 25 mg/L (≈ 26.4 µM)
Pasteurella multocida
  MIC: 3.12 mg/L (≈ 3.29 µM)

## NCCC[C@H](N)CC(=O)NC1CNC(=O)[C@@H](C2CC(NC(=O)OCc3cccc(Cl)c3Cl)N=C(N)N2)NC(=O)/C(=C/NC(N)=O)NC(=O)[C@@H](CO)NC(=O)[C@@H](CO)NC1=O (some centres undefined)
Escherichia coli
  MIC: 25 mg/L (≈ 28.2 µM)
Pasteurella multocida
  MIC: 3.13 mg/L (≈ 3.53 µM)
Staphylococcus aureus
  MIC: 12.5 mg/L (≈ 14.1 µM)

## NCCC[C@H](N)CC(=O)NC1CNC(=O)[C@@H](C2CC(NC(=O)NCc3cccc(C4CCCCC4)c3)N=C(N)N2)NC(=O)/C(=C/NC(N)=O)NC(=O)[C@@H](CO)NC(=O)[C@@H](CO)NC1=O (some centres undefined)
Staphylococcus aureus
  MIC: 12.5 mg/L (≈ 13.9 µM)

## NCCC[C@H](N)CC(=O)NC1CNC(=O)[C@@H](C2CC(O)N=C(N)N2)NC(=O)/C(=C/NC(=O)Nc2ccc(Cl)c(Cl)c2)NC(=O)[C@@H](CO)NC(=O)[C@@H](CO)NC1=O (some centres undefined)
Escherichia coli
  MIC: 50 mg/L (≈ 60.2 µM)
Pasteurella multocida
  MIC: 3.12 mg/L (≈ 3.76 µM)

## NCCC[C@H](N)CC(=O)NC1CNC(=O)[C@@H](C2CC(c3ccc(O)c(O)c3)N=C(N)N2)NC(=O)/C(=C/NC(=O)Nc2ccc(Cl)c(Cl)c2)NC(=O)[C@@H](CO)NC(=O)[C@@H](CO)NC1=O (some centres undefined)
Escherichia coli
  MIC: 12.5 mg/L (≈ 13.5 µM)
Pasteurella multocida
  MIC: 12.5 mg/L (≈ 13.5 µM)

## NCCC[C@H](N)CC(=O)NC1CNC(=O)[C@@H](C2CC(NC(=O)Nc3ccc(Cl)c(Cl)c3)N=C(N)N2)NC(=O)/C(=C/NC(N)=O)NC(=O)[C@@H](CO)NC(=O)[C@@H](CO)NC1=O (some centres undefined)
Escherichia coli
  MIC: 6.25 mg/L (≈ 7.16 µM)
Pasteurella multocida
  MIC: 1.56 mg/L (≈ 1.79 µM)
Staphylococcus aureus
  MIC: 25 mg/L (≈ 28.6 µM)

## NCCC[C@H](N)CC(=O)NC1CNC(=O)[C@@H](C2CC(NC(=O)OCc3ccccc3)N=C(N)N2)NC(=O)/C(=C/NC(N)=O)NC(=O)[C@@H](CO)NC(=O)[C@@H](CO)NC1=O (some centres undefined)
Escherichia coli
  MIC: 50 mg/L (≈ 61.1 µM)
Pasteurella multocida
  MIC: 25 mg/L (≈ 30.5 µM)

## NCCC[C@H](N)CC(=O)NC1CNC(=O)[C@@H](C2CC(c3ccc(O)c(O)c3)N=C(N)N2)NC(=O)/C(=C/NC(N)=O)NC(=O)[C@@H](CO)NC(=O)[C@@H](CO)NC1=O (some centres undefined)
Escherichia coli
  MIC: 200 mg/L (≈ 257 µM)
Pasteurella multocida
  MIC: 200 mg/L (≈ 257 µM)

## NCCC[C@H](N)CC(=O)NC1CNC(=O)[C@@H](C2CC(N[C@H](CS)C(=O)O)N=C(N)N2)NC(=O)/C(=C/NC(=O)Nc2ccc(Cl)c(Cl)c2)NC(=O)[C@@H](CO)NC(=O)[C@@H](CO)NC1=O (some centres undefined)
Escherichia coli
  MIC: 25 mg/L (≈ 26.8 µM)
Pasteurella multocida
  MIC: 3.12 mg/L (≈ 3.34 µM)

## NCCC[C@H](N)CC(=O)NC1CNC(=O)[C@@H](C2CC(NC(=O)NCc3ccc(Cl)c(Cl)c3)N=C(N)N2)NC(=O)/C(=C/NC(N)=O)NC(=O)[C@@H](CO)NC(=O)[C@@H](CO)NC1=O (some centres undefined)
Escherichia coli
  MIC: 12.5 mg/L (≈ 14.1 µM)
Pasteurella multocida
  MIC: 3.13 mg/L (≈ 3.53 µM)

## NCCC[C@H](N)CC(=O)NC1CNC(=O)[C@@H](C2CC(SCCN)NC(N)=N2)NC(=O)/C(=C/NC(=O)Nc2ccc(Cl)c(Cl)c2)NC(=O)[C@@H](CO)NC(=O)[C@@H](CO)NC1=O (some centres undefined)
Escherichia coli
  MIC: 25 mg/L (≈ 28.1 µM)
Pasteurella multocida
  MIC: 3.12 mg/L (≈ 3.51 µM)

## NCCC[C@H](N)CC(=O)NC1CNC(=O)[C@@H](C2CC(NC(=O)Nc3ccc(Cl)c(Cl)c3)N=C(N)N2)NC(=O)/C(=C/NC(=O)Nc2ccc(Cl)c(Cl)c2)NC(=O)[C@@H](CO)NC(=O)[C@@H](CO)NC1=O (some centres undefined)
Escherichia coli
  MIC: 6.25 mg/L (≈ 6.14 µM)
Pasteurella multocida
  MIC: 6.25 mg/L (≈ 6.14 µM)
Staphylococcus aureus
  MIC: 25 mg/L (≈ 24.6 µM)

## NCCC[C@H](N)CC(=O)NC1CNC(=O)[C@@H](C2CC(NC(=O)OCc3ccc(I)cc3)N=C(N)N2)NC(=O)/C(=C/NC(N)=O)NC(=O)[C@@H](CO)NC(=O)[C@@H](CO)NC1=O (some centres undefined)
Escherichia coli
  MIC: 12.5 mg/L (≈ 13.2 µM)
Pasteurella multocida
  MIC: 3.13 mg/L (≈ 3.31 µM)
Staphylococcus aureus
  MIC: 12.5 mg/L (≈ 13.2 µM)

## NCCC[C@H](N)CC(=O)NC1CNC(=O)[C@@H](C2CC(NC(=O)OCc3ccc(Cl)cc3F)N=C(N)N2)NC(=O)/C(=C/NC(N)=O)NC(=O)[C@@H](CO)NC(=O)[C@@H](CO)NC1=O (some centres undefined)
Escherichia coli
  MIC: 12.5 mg/L (≈ 14.3 µM)
Pasteurella multocida
  MIC: 3.13 mg/L (≈ 3.59 µM)

## CC(=O)N(C1CC([C@H]2NC(=O)/C(=C/NC(=O)Nc3ccc(Cl)c(Cl)c3)NC(=O)[C@@H](CO)NC(=O)[C@@H](CO)NC(=O)C(NC(=O)C[C@@H](N)CCCN)CNC2=O)N=C(N)N1)[C@H](CS)C(=O)O (some centres undefined)
Escherichia coli
  MIC: 50 mg/L (≈ 51.2 µM)
Pasteurella multocida
  MIC: 6.25 mg/L (≈ 6.4 µM)

## Cc1ccc(S(=O)(=O)NC2CC([C@H]3NC(=O)/C(=C/NC(N)=O)NC(=O)[C@@H](CO)NC(=O)[C@@H](CO)NC(=O)C(NC(=O)C[C@@H](N)CCCN)CNC3=O)N=C(N)N2)cc1 (some centres undefined)
Escherichia coli
  MIC: 200 mg/L (≈ 238 µM)
Pasteurella multocida
  MIC: 200 mg/L (≈ 238 µM)

## CC(C)(C)c1ccc(COC(=O)NC2CC([C@H]3NC(=O)/C(=C/NC(N)=O)NC(=O)[C@@H](CO)NC(=O)[C@@H](CO)NC(=O)C(NC(=O)C[C@@H](N)CCCN)CNC3=O)N=C(N)N2)cc1 (some centres undefined)
Escherichia coli
  MIC: 25 mg/L (≈ 28.6 µM)
Pasteurella multocida
  MIC: 12.5 mg/L (≈ 14.3 µM)

## COc1ccc(C2CC([C@H]3NC(=O)/C(=C/NC(=O)Nc4ccc(Cl)c(Cl)c4)NC(=O)[C@@H](CO)NC(=O)[C@@H](CO)NC(=O)C(NC(=O)C[C@@H](N)CCCN)CNC3=O)N=C(N)N2)cc1OC (some centres undefined)
Escherichia coli
  MIC: 12.5 mg/L (≈ 13.1 µM)
Pasteurella multocida
  MIC: 12.5 mg/L (≈ 13.1 µM)

## NCCC[C@H](N)CC(=O)NC1CNC(=O)[C@@H](C2CC(O)N=C(N)N2)NC(=O)/C(=C/NC(N)=O)NC(=O)[C@@H](CO)NC(=O)[C@@H](CO)NC1=O (some centres undefined)
Escherichia coli
  MIC: 200 mg/L (≈ 292 µM)
Pasteurella multocida
  MIC: 200 mg/L (≈ 292 µM)

## NCCC[C@H](N)CC(=O)NC1CNC(=O)[C@@H](C2CC(NC(=O)OCc3ccc(Cl)cc3Cl)N=C(N)N2)NC(=O)/C(=C/NC(=O)Nc2ccc(Cl)c(Cl)c2)NC(=O)[C@@H](CO)NC(=O)[C@@H](CO)NC1=O (some centres undefined)
Escherichia coli
  MIC: 3.13 mg/L (≈ 3.03 µM)
Pasteurella multocida
  MIC: 6.25 mg/L (≈ 6.05 µM)
Staphylococcus aureus
  MIC: 12.5 mg/L (≈ 12.1 µM)
